Assay results: patent US20030134329A1, “Cross-species bioactive peptides” (priority 2001, published 2003)

What was measured:
[1] = test system: FLO11; assay: PFLO11-lacZ reporter, β-galactosidase activity; type: cell-based, S. cerevisiae; conditions: for FL011-lacZ (relative expression): Table 1, strain MY1405 with plasmid MB1339, control pTCN23 = 1.0; for FLO11-lacZ (relative expression): Table 2, strain MY1405 with MB1339, control pTCN23 = 1.0
Source text: Transformation of S. cerevisiae was by lithium acetate/single-stranded carrier DNA/polyethylene glycol (LiAc/ss-DNA/PEG) protocol (see, e.g., Gietz and Woods (1998), in: Methods in Microbiology, Chapter 26, Brown and Tuite, eds., Academic Press, New York; Agatep et al. (1998), TTO 1:P01525, Technical Tips Online at http://tto.trends.com) with a library of plasmids expressing unique random peptide sequences in the context of a Staphylococcal nuclease “scaffold” to generate more than 20 million independent Ura^+ transformants (Norman et al. (1999), Science 285:591-595). The transformants were replica-plated to YPD plates supplemented with […] G418 to select for clones with increased expression of the invasion-related reporter (FLO11) and consequent G418 resistance. Plates were incubated at 30° C. for 2-4 days and resistant clones were collected in pools (50 pools total) by scraping the colonies off each plate in a small volume of water. Plasmids were isolated as a pool (Hoffman and Winston (1986), Gene 57:267), transformed into E. coli, and re-transformed as a pool into the original selection strain, MY1560. Ura^+ transformants were again replica plated to YPD+100 μg/ml G418 plates. […] Positive clones were further tested for plasmid dependence by (1) examining the correlation between spontaneous loss of the peptide-expressing plasmid and loss of G418 resistance, and (2) recovering the plasmid from the yeast, retransforming into the original selection strain, and characterizing the G418 resistance. […] The remaining candidate peptides were characterized for their effects on expression of PFLO11-lacZ reporter constructs. This was performed by co-transforming the candidate plasmid into S. cerevisiae strain MY1405 (MATα ura3Δ0 his3Δ0::hisG trp1Δ0::hisG) which contains plasmid MB1339 [PFLO11-lacZ TRP1 […]] and measuring β-galactosidase activity.

[2] = test system: PHWP1-lacZ reporter; assay: PHWP1-lacZ reporter visual screen on X-Gal plates; type: cell-based, C. albicans
[3] = test system: hyphal transition in C. albicans; assay: serum induction assay of hyphal transition; type: cell-based; conditions: C. albicans transformants, serum inducing media, 37° C., relative to parent staph nuclease scaffold
[4] = test system: SMP1; conditions: Table 2, strain MY1405 with MB1338, control pTCN23 = 1.0
Source text: S. cerevisiae strain MY1561 (MATα/MATαΔ::LEU2 ura3Δ::PSMP1-neo/ura3Δ0 leu2Δ0/leu2Δ0 trp1Δ0::hisG/trp1Δ0::hisG/his3Δ0::hisG/his3Δ0::hisG) was transformed with the peptide library as described above to generate 10 million independent Ura^+ clones. The transformed clones were mated to lawns of S. cerevisiae strain MY1406 [MB1337] and subsequently replica-plated to SC-Ura-Trp plates to select for triploids carrying the library clones in addition to the PSMP1-neo reporter. […] The MY1561/MY1406 [MB1337] triploids were replica-plated to YPD plates containing 100, 150, and 200 μg/ml G418, and resistant colonies were picked and retested, and their phenotypes were checked for library plasmid dependence using 5-FOA. Promising candidates were lysed and their plasmids recovered in E. coli, amplified, and reintroduced into MY1561 along with MB 1337(MY1561 is an S. cerevisiae strain and MB 1337 is a plasmid). […] In addition, S. cerevisiae strain MY1405 was transformed with the peptide clones along with MB1338 [PSMP1-lacZ TRP1 2 micron] and MB1339 [PFLO11-lacZ TRP1 2 micron], and the enzyme assays were monitored. […] Peptide inhibitors of invasion were further characterized for their effects on calcofluor resistance, a phenotype associated with mutations in the rim101/pH response pathway.

| Substance | FL011-lacZ (relative expression) [1] | further results |
| --- | --- | --- |
| ELAYKFGRDWARLYFS [Clone 5-75-1, invasion-promoting random peptide expressed in loop of Staphylococcal nuclease scaffold] | 15.0 | – |
| PYGPFLLLTPF*A*L [5-32, 1, invasion-promoting random peptide in Staphylococcal nuclease scaffold; * denotes a stop codon; C. albicans expression plasmid MB2756] | 15.1 | β-galactosidase expression (PHWP1-lacZ reporter) [2]: higher level of β-galactosidase expression; morphological switch between yeast and filamentous growth (hyphal transition) [3]: effective in inducing the morphological switch between yeast and filamentous growth |
| LSYMEGPYWHRSFRAV [Clone G2a] | – | FLO11-lacZ (relative expression) [1]: 0.5; SMP1-lacZ (relative expression) [4]: 7.5 |
| KRKVCLLGGRFLVEWL [4-16, 2, invasion-promoting random peptide expressed in loop of Staphylococcal nuclease scaffold] | 14.8 | – |
| RRWNRLKSWWPCFREQ [Clone 5-18-3b, invasion-promoting random peptide expressed in loop of Staphylococcal nuclease scaffold] | 2.6 | – |
| LGYGEAEREMVTCREH [Clone D4a] | – | FLO11-lacZ (relative expression) [1]: 0.1; SMP1-lacZ (relative expression) [4]: 9.1 |
| LPVSYVGQSTSQGPVW [Clone G4a-6] | – | FLO11-lacZ (relative expression) [1]: 0.4; SMP1-lacZ (relative expression) [4]: 7.8 |
| LTGYAKLLVQLSYFAM [Clone B2c-2] | – | FLO11-lacZ (relative expression) [1]: 0.7; SMP1-lacZ (relative expression) [4]: 6.4 |
| RCPVAHTLCWEVAGCT [Clone 5-43-3b, invasion-promoting random peptide expressed in loop of Staphylococcal nuclease scaffold] | 9.6 | – |
| RRWEVLRGDRTARLLS [5-25, 2, invasion-promoting random peptide expressed in loop of Staphylococcal nuclease scaffold] | 13.7 | – |
| LGYMRASREMDGWKLL [Clone D2a] | – | FLO11-lacZ (relative expression) [1]: 0.3; SMP1-lacZ (relative expression) [4]: 15.4 |
| LYRAFTWPVAKSLRME [5-37, 1, invasion-promoting random peptide expressed in loop of Staphylococcal nuclease scaffold] | 6.1 | – |
| QRIPLIGGVLFIAWIM [Clone 5-11-3a, invasion-promoting random peptide expressed in loop of Staphylococcal nuclease scaffold] | 3.0 | – |
| GAGCAPRGCVVWSSLL [4-3, 1, invasion-promoting random peptide expressed in loop of Staphylococcal nuclease scaffold] | 2.5 | – |
| LDLDRVSVNRCSFMGF [Clone 5-20-1a, invasion-promoting random peptide expressed in loop of Staphylococcal nuclease scaffold] | 2.8 | – |
| EWCEICHRLVWVFCFT [5-34, 3, invasion-promoting random peptide expressed in loop of Staphylococcal nuclease scaffold] | 4.1 | – |

| Substance | FL011-lacZ (relative expression) [1] | further results |
| --- | --- | --- |
| SGDAVMGFLLKCLGLQ [5-31, 2, invasion-promoting random peptide expressed in loop of Staphylococcal nuclease scaffold] | 12.6 | – |
| CGLGGCCCEIFWSFSN [5-30, 3, invasion-promoting random peptide expressed in loop of Staphylococcal nuclease scaffold] | 7.3 | – |
| KRGRRRSHSCPSLMTD [4-1, 1, invasion-promoting random peptide expressed in loop of Staphylococcal nuclease scaffold] | 2.2 | – |
| GHLWEWSGERWLLRWC [5-23, 1a, invasion-promoting random peptide expressed in loop of Staphylococcal nuclease scaffold] | 12.2 | – |
| YEAGVILRACLWAVSG [4-17, 1, invasion-promoting random peptide expressed in loop of Staphylococcal nuclease scaffold] | 10.5 | – |
| HGDGLMRYFWSVAMWT [Clone 5-12-1a, invasion-promoting random peptide expressed in loop of Staphylococcal nuclease scaffold] | 2.7 | – |
| GRRSRVRWSWPLFKSL [5-28, 3, invasion-promoting random peptide expressed in loop of Staphylococcal nuclease scaffold] | 18.2 | – |
| REINWLRFFRLHKVID [5-45, 2, invasion-promoting random peptide expressed in loop of Staphylococcal nuclease scaffold] | 6.2 | – |
| LAYGPERYPRACMRWD [Clone B2a] | – | FLO11-lacZ (relative expression) [1]: 0.2; SMP1-lacZ (relative expression) [4]: 8.9 |
| AFSRRGRRAWSWPVSN [5-48, 2, invasion-promoting random peptide expressed in loop of Staphylococcal nuclease scaffold] | 12.9 | – |
| GYLRKHRALALGLNLH [4-9, 3, invasion-promoting random peptide expressed in loop of Staphylococcal nuclease scaffold] | 11.5 | – |
| MGCVKRLLWGCCMKLT [Clone 5-64-1, invasion-promoting random peptide expressed in loop of Staphylococcal nuclease scaffold] | 2.0 | – |
| WWRPHERFIWAQYYLA [5-14, 3, invasion-promoting random peptide expressed in loop of Staphylococcal nuclease scaffold] | 4.9 | – |
| LPYEVSRVCWPRRLGY [Clone D2e] | – | FLO11-lacZ (relative expression) [1]: 0.1; SMP1-lacZ (relative expression) [4]: 14.3 |
| QPWYRKLRLAPVYPSD [Clone 5-39-1a, invasion-promoting random peptide expressed in loop of Staphylococcal nuclease scaffold] | 17.8 | – |
| ALARWLEIELHPQGLI [5-16, 3, invasion-promoting random peptide expressed in loop of Staphylococcal nuclease scaffold] | 13.3 | – |
